In patent US20240041878A1, “APELIN RECEPTOR MODULATORS FOR TREATMENT OF A DISORDER OR DISEASE ASSOCIATED WITH BBB PERMEABILITY” (BioAge Labs, Inc., priority 2022, published 2024):

Experiments:
[1] = test system: NF-κB activation and IκBα phosphorylation in astrocytes; experiment: Western blot of NF-κB p65 and p-IκBα/t-IκBα in astrocytes; assay type: cell-based, mouse
Procedure: To stimulate astrocytes into a reactive state found in aging and neurodegenerative diseases per previous publications (Liddelow et al., 2017; Barbar et al., 2020), a combination of the cytokines TNF-α and IL-1α, and complement factor C1q, were added at 30 ng/mL, 3 ng/mL, and 400 ng/mL, respectively, into astrocyte culture media to make ‘reactive astrocyte cocktail’ (RAC) media. Astrocytes were cultured in RAC media for 24 hours, with or without various concentrations of BGE-105 (10 nM, 50 nM, 250 nM final concentration), (Pyr^1)-Apelin-13 (50 nM; Bachem, Cat. #4029110), BAY-11-7082 (50 μM; Abcam, Cat. #ab141228) or equal volume of vehicle (0.01% DMSO in PBS) (hereafter referred to as ‘RAC treatment’). […]
For analysis of astrocyte protein expression, cells were washed after RAC treatment with PBS and lysed with Neuronal Protein Extraction Reagent (Thermo Scientific, Cat. #87792), centrifuged to pellet debris, and supernatant was transferred to a new tube. Total protein concentration was measured by BCA protein assay (Thermo Scientific, Cat. #PI23227).

[2] = test system: healthy volunteers aged 65 or older; experiment: Phase 1b clinical trial, 10 days of bed rest; assay type: in vivo, human; conditions: infusions
Description: The study described herein characterizes the effects of BGE-105 on immune biomarkers in human in a Phase 1b clinical trial directed to treatment of muscular atrophy. […] The double-blind, placebo-controlled trial evaluated the safety and pharmacodynamics of BGE-105. Twenty-one volunteers underwent 10 days of bed rest while receiving infusions of BGE-105 or placebo. Biological samples from treated and placebo groups were collected on Day 6 and Day 11.

SOD1^G93A mice = experiment: ICV administration in SOD1^G93A mouse model of ALS; assay type: in vivo; conditions: ICV via Alzet minipumps, 1 month
Procedure: The study accesses the effects of BGE-105 in a mouse model of ALS. The study establishes pharmacokinetic/pharmacodynamic features of intracerebroventricular (ICV) administration of BGE-105 in wildtype C57BL/6J mice. Multiple doses across multiple timepoints are tested to determine drug characteristics within the central nervous system (CNS). BGE-105 is administered to SOD1^G93A mice using Alzet minipumps connected to ICV cannulas.
Astrocyte reactivity, driven by IL-la/TNFα/C1q-mediated neurotoxicity, contributes to spinal cord motor neuron death and motor dysfunction in mouse models of ALS. […] This study first validates intraventricular administration of BGE-105 into wildtype mice to establish CNS-specific drug properties and guide optimal dose selection. Next, the efficacy of CNS delivery of BGE-105 to minimize motor neuron death, improve motor function, and extend lifespan in the SOD1^G93A mouse model of ALS is tested. For experiments in vivo, BGE-105 are administered to SOD1^G93A mice using Alzet minipumps. Alzet minipumps are implanted at 4 months of age, followed by 1 month of continuous administration of BGE-105.
Analyses of motoric, behavioral, and survival endpoints are measured. Brain, spinal cord, and skeletal muscle are dissected post mortem for histochemical and transcriptomic analyses to determine target engagement and mechanisms of action.
Alzet minipumps connected to intraventricular cannulas are utilized for continuous CNS delivery of BGE-105, akin to previous studies on APJ agonism in the CNS (Zhu et al., 2020. Apelin-36 mediates neuroprotective effects by regulating oxidative stress, autophagy and apoptosis in MPTP-induced Parkinson's disease model mice, Brain Research, Volume 1726, 2020, 146493, ISSN 0006-8993). 4-month-old SOD1^G93A mice (C57BL/6J background; strain #004435, Jackson Laboratory) of both sexes (n=12/group; 6 male, 6 female) are randomized into vehicle or two separate treatment groups before undergoing baseline motor behavior assessments including the open field, grid hang, beam walk, and accelerating rotarod. […]

COc1cccc(OC)c1-n1c(NS(=O)(=O)[C@@H](C)[C@H](C)c2ncc(C)cn2)nnc1-c1cncc(C)c1 [BGE-105, (2S,3R)—N-(4-(2,6-dimethoxyphenyl)-5-(5-methyl-3-pyridinyl)-4H-1,2,4-triazol-3-yl)-3-(5-methyl-2-pyrimidinyl)-2-butanesulfonamide]
ratio of p-IκBα/tIκBα expression normalized to β-actin ([1]; RAC+BGE105 (50 nM) versus RAC): significantly reduced | NF-κB p65 expression normalized to β-actin ([1]; RAC+BGE-105 (50 nM) versus RAC): significantly reduced | tolerability ([2]; 10 days of bed rest): well tolerated | muscle atrophy relative to placebo ([2]; 10 days of strict bed rest): statistically significant prevention | lifespan (SOD1^G93A mice): extends lifespan | motor function (SOD1^G93A mice): improves motor function | motor neuron death (SOD1^G93A mice): minimizes motor neuron death
